# Measurements published in patent US8598184B2, “Protein kinase inhibitors” (Tiger Pharmatech, priority 2008, dated 2013).
# Values joined by “and” are separate entries in the source; they are usually repeats but may differ in a detail not shown here. Equal values may be shown once. Read-outs that look alike come from different tables or passages of the source.
# Experiments:
# [1] = In vivo pharmacokinetics study in rats, intravenous and oral administration; parameters: species or system male Sprague Dawley rats
# Procedure: The compounds of the present invention were formulated as a solution in a 30:70 (PEG 400:acidified H2O) vehicle. This solution was administered orally (p.o.) at 10 mg/kg and intravenously (i.v.) at 2.5 mg/kg to two distinct groups (n=3) of male Sprague Dawley rats (body weight of 220-250 g). The animals used in the oral dosing group were fasted for 12 hrs before the drug administration. The blood samples were collected via retro-orbital puncture at 0 hour (pre-dose), 0.083, 0.25, 0.5, 1, 2, 4, 6, 8, and 24 hours post-dose. The blood plasma was isolated and HPLC was performed to determine the concentration of the test compounds in blood plasma. Standard set of pharmacokinetic parameters including Area Under the Curves (AUC's), elimination half-lives and bioavailabilities etc. were calculated using FDA certified pharmacokinetic program WinNonlin Professional v5.2 (Pharsight, USA).
# The bioavailability was calculated as F (%)=(Doseiv×AUCoral(0-∞))/(Doseoral×AUCiv(0-∞))100%. The plasma concentration-time curve of example 5 in male rats following intravenous and oral administration was shown in FIG. 1. Selected pharmacokinetics parameters of example 5 in male rats following intravenous and oral administration were listed in Table 2.
# [2] = system: U87MG glioblastoma tumor xenograft; settings: for tumor growth inhibition: Day 12, vs vehicle-treated controls
# Procedure: The U87MG glioblastoma cell line (obtained from Institute of Biochemistry and Cell Biology, Shanghai Institutes for Biological Sciences) expresses the c-Met receptor and responds to […] (HGF). […] The study utilized a tumor growth inhibition (TGI) assay to test per os (p.o.) compound monotherapy in groups of eight nude mice. A control group was treated with a 30:70 (PEG 400:acidified H2O) vehicle. All treatments began on Day 1 (D1) in mice bearing established subcutaneous (s.c.) U87MG tumors.
# Female athymic nude mice (BALB/cA, Shanghai Laboratories Animal Center, Shanghai, China) were 7-8 weeks old with a body weight range of 19-21 g at the beginning of the study. Food and water were available ad libitum throughout the study. Mice were housed in SPF (Specific Pathogen Free) area of Medicilon/MPI animal facility. Environmental control for the animal room was set to maintain a temperature of 18-25° C., humidity of 30-70%, and a 12-hour light/12-hour dark cycle. Animals had previously been acclimated to study procedures prior to initial dose administration. Animals to be used on test were selected based on overall health and acclimation to caging.
# U-87 MG human glioblastoma cells were purchased from Institute of Biochemistry and Cell Biology, Shanghai Institutes for Biological Sciences. The cells were maintained in vitro Eagle's Minimum Essential Medium supplemented with 10% heat inactivated fetal calf serum. Cells were cultured at 37° C. in an atmosphere of 5% CO2 in air and routinely sub-cultured twice weekly by trypsin-EDTA treatment. Cells in an exponential growth phase were harvested and counted for tumor inoculation. Each test mouse was subcutaneously inoculated with 1×10^7 U87-MG tumor cells in 0.1 ml medium at the right flank of the mouse for tumor model development. During the experiment, the implanted tumors were measured by external caliper every other day in a blind fashion. Nine days later, on Day 1 of the study, mice with well-established tumors (about 150 mm^3) were randomly assigned into 4 groups (n=8 mice/group). Tumor volume was calculated using the formula: Tumor Volume=w^2×l/2 where w=width and l=length in mm of the tumor. Tumor weight may be estimated with the assumption that 1 mg is equivalent to 1 mm^3 of tumor volume.
# In all groups, the dosing volume of 0.2 mL/20 g mouse was scaled to the body weight of each animal
# The MTV (n) is defined as the median tumor volume (MTV) for the number of animals, n, remaining in the study on that day. The Median Tumor Growth Volume=Median Tumor Volume−Median Tumor Volumeinitial.
# Tumor growth was plotted as the median tumor volume, versus time, for each group in the study. The differences in the tumor size between the treatment groups and the vehicle group are analyzed for significance using the unpaired two-tailed Student's t-test. P<0.05 is considered to be statistically significant.
# [3] = male rats, IV 2.5 mg/kg, individual animals R 1-R 3
# [4] = male rats, PO 10 mg/kg, fasted, individual animals R 4-R 6
# [5] = male, Sprague Dawley, rat, plasma, iv, 2.5 mg/kg, IV 2.5 mg/kg, individual animals R 1-R 3
# [6] = male, Sprague Dawley, rat, plasma, iv, 2.5 mg/kg, IV 2.5 mg/kg, mean (n=3)
# [7] = male, Sprague Dawley, rat, plasma, po, 10 mg/kg, PO 10 mg/kg, fasted, individual animals R 4-R 6
# [8] = male, Sprague Dawley, rat, plasma, po, 10 mg/kg, PO 10 mg/kg, fasted, mean (n=3)
structure (smiles),measurement,setting,value
"OCCn1cc(-c2ncc3nnn(Cc4ccc5ncccc5c4)c3n2)cn1 [Example 5, 2-(4-(3-(Quinolin-6-ylmethyl)-3H-[1,2,3]triazolo[4,5-d]pyrimidin-5-yl)-1H-pyrazol-1-yl)ethanol]",Tmax,"[1]; Sprague Dawley, rat, plasma, male rats, IV 2.5 mg/kg, individual animals R 1-R 3",0.08 h
same,Tmax,"[1]; Sprague Dawley, rat, plasma, male rats, PO 10 mg/kg, fasted, individual animals R 4-R 6",2 h
same,AUC(0-t),[1]; [3],5472.46 ng·h/mL and 3451.75 ng·h/mL and 7274.77 ng·h/mL
same,AUC(0-∞),[1]; [3],3.74158 µg·h/mL and 7.31008 µg·h/mL
same,Cmax,[1]; [3],2417.88 ng/mL and 3019.57 ng/mL
same,t1/2,[1]; [3],2.59 h and 3.23 h
same,F % (bioavailability),"[1]; male rats, PO 10 mg/kg vs IV 2.5 mg/kg, individual animals R 4-R 6",70.36% and 72.63%
same,AUC(0-t),[1]; [4],15454.20 ng·h/mL and 15954.84 ng·h/mL
same,AUC(0-∞),[1]; [4],15.50949 µg·h/mL and 16.01005 µg·h/mL
same,Cmax,[1]; [4],1505.63 ng/mL and 2299.65 ng/mL
same,t1/2,[1]; [4],2.82 h and 2.98 h
same,AUC(0-inf),[1]; [5],5480 ng·h/mL
same,half-life,[1]; [5],157 min
same,Cmax,"[1]; male, Sprague Dawley, rat, plasma, iv, 2.5 mg/kg, IV 2.5 mg/kg, individual animals R 1-R 3, read-out: Cmax",2700 ng/mL
same,AUC(0-inf),[1]; [6],5510 ng·h/mL
same,half-life,[1]; [6],169 min
same,AUC(0-t),"[1]; male, Sprague Dawley, rat, plasma, iv, 2.5 mg/kg, IV 2.5 mg/kg, mean (n=3), read-out: AUC(0-t)",5400 ng·h/mL
same,Cmax,"[1]; male, Sprague Dawley, rat, plasma, iv, 2.5 mg/kg, IV 2.5 mg/kg, mean (n=3), read-out: Cmax",2710 ng/mL
same,bioavailability,"[1]; male, Sprague Dawley, rat, plasma, po, 10 mg/kg, PO 10 mg/kg vs IV 2.5 mg/kg, individual animals R 4-R 6, read-out: F % (bioavailability)",79.4%
same,bioavailability,"[1]; male, Sprague Dawley, rat, plasma, po, 10 mg/kg, PO 10 mg/kg vs IV 2.5 mg/kg, mean (n=3), read-out: F % (bioavailability)",74.1%
same,AUC(0-inf),[1]; [7],17500 ng·h/mL
same,half-life,[1]; [7],173 min
same,AUC(0-t),"[1]; male, Sprague Dawley, rat, plasma, po, 10 mg/kg, PO 10 mg/kg, fasted, individual animals R 4-R 6, read-out: AUC(0-t)",17400 ng·h/mL
same,Cmax,"[1]; male, Sprague Dawley, rat, plasma, po, 10 mg/kg, PO 10 mg/kg, fasted, individual animals R 4-R 6, read-out: Cmax",2540 ng/mL
same,AUC(0-inf),[1]; [8],16300 ng·h/mL
same,half-life,[1]; [8],173 min
same,AUC(0-t),"[1]; male, Sprague Dawley, rat, plasma, po, 10 mg/kg, PO 10 mg/kg, fasted, mean (n=3), read-out: AUC(0-t)",16300 ng·h/mL
same,Cmax,"[1]; male, Sprague Dawley, rat, plasma, po, 10 mg/kg, PO 10 mg/kg, fasted, mean (n=3), read-out: Cmax",2110 ng/mL
same,tumor growth inhibition,[2]; 10 mg/kg p.o. once a day (q.d.),58%
same,tumor growth inhibition,[2]; 30 mg/kg p.o. twice a day (b.i.d.),70%
same,significance of tumor growth inhibition,"[2]; 40 mg/kg (q.d.) and 30 mg/kg (b.i.d.), from Day 4, p<0.05",statistically significant tumor growth inhibition
same,tumor growth inhibition,[2]; 40 mg/kg p.o. once a day (q.d.),66%
same,significance of tumor growth inhibition,"[2]; all doses (10, 40 mg/kg q.d., 30 mg/kg b.i.d.), from Day 6, p<0.05",statistically significant tumor growth inhibition
